The assay relates to clinically isolated P. aeruginosa strains. The assay can be described thus: checkerboard method, gemifloxacin or ciprofloxacin with ceftazidime, 6 clinical isolates (Example 5). It counts as cell-based, Pseudomonas aeruginosa. The conditions noted are these: for FICA: FIC of gemifloxacin; for Cgemifloxacin MIC: in combination with ceftazidime; for MIC: Pseudomonas aeruginosa, drug alone, read-out: gemifloxacin MIC. The method, then: Minimal inhibitory concentrations (MICs) for each separate drug were determined. For wells along the growth-no growth interface, synergy was determined by calculating the Fractional Inhibitory Concentration (FIC) index. The Fractional Inhibitory Concentration (FIC) indices were calculated using the following formula: FICindex=FICA+FICB=[A]/MICA+[B]/MICB • Wherein: • FICA(or B), is the FIC of drug A (or B) MICA (or B) is the MIC of the organism to drug A (or B) • A (or B) is concentration of drug A (or B) that is the lowest inhibitory concentration
The FIC indices were interpreted using the following criteria: • ≦0.5=Synergy • >0.5–1.0=Additive • >1.0–4.0=Indifference • >4.0=Antagonism
The test organisms were clinical isolates collected in Korea. Organisms were frozen at −70 C. prior to testing. […] Gemifloxacin or ciprofloxacin solution was dispensed alone in the first row and combined with ceftazidime in the remaining rows. Ceftazidime as also dispensed alone in the first row in the first column. Test strains of P. aeruginosa were grown for 18 h in Mueller-Hinton broth, and then these overnight cultures were diluted with the same fresh medium to the density of approximately 10^7 CFU/mL. The bacterial concentrations were determined by measuring optical density or turbidity of the suspension and were verified by standard colony counts on antibiotic-free agar plates. A diluted bacterial solution was applied to 96-well plates containing serially diluted antimicrobial agents to yield 5×10^5 CFU/mL. Plates were incubated at 35 C for 18 hours.
MICs for each separate drug were determined, and for wells along the growth-no growth interface, synergy was determined by calculating FIC Indices as in Example 4. FIC Indices were calculated and interpreted as in Example 4.

As a reminder, the MIC is the smallest concentration in the dilution series that meets the test's criterion for growth inhibition.

Where two headings read alike, the source gives them in different places.

With `CO/N=C1\CN(c2nc3c(cc2F)c(=O)c(C(=O)O)cn3C2CC2)CC1CN` (racemic) [gemifloxacin, (R,S)-7-(3-aminomethyl-4-methoxyiminopyrrolidin-1-yl)-1-cyclopropyl-6-fluoro-4-oxo-1,4-dihydro-1,8-naphthyridine-3-carboxylic acid], under “P. aeruginosa 6140”, the FICA is 0.06, the “Cgemifloxacin MIC” value is 0.5 µg/mL and the MIC came out at 8 µg/mL. For the same molecule, under “P. aeruginosa 6168”, the FICA worked out at 0.13, the “Cgemifloxacin MIC” value turned out to be 0.0625 µg/mL and the MIC was 0.5 µg/mL. Besides, for the setting “P. aeruginosa P003”, the FICA is recorded as 0.06, the “Cgemifloxacin MIC” value is 0.125 µg/mL and the MIC came to 2 µg/mL.
